Source: patent US4032625A, “Bone-seeking technetium-99m complex” (priority 1975, dated 1977)
Where two headings read alike, the source gives them in different places.

Settings: 2 Hrs

For “99m technetium-tin-1-amino-ethane-1,1-diphosphonate complex [^99m Tc-Sn-AEDP]”, the “Ratio of 99mTc complex/85Sr: Ave Bone” value (0.01 mg/kg) was 0.735, the “Ratio of 99mTc complex/85Sr: Blood” value (0.01 mg/kg) was 0.406 and the “Ratio of 99mTc complex/85Sr: Femur” value (0.01 mg/kg) was 0.720. The “Ratio of 99mTc complex/85Sr: Kidneys” value (0.01 mg/kg) was 4.99, the “Ratio of 99mTc complex/85Sr: Liver” value (0.01 mg/kg) was 3.00 and the “Ratio of 99mTc complex/85Sr: Marrow” value (0.01 mg/kg) was 1.27. For the same substance, the “Ratio of 99mTc complex/85Sr: Muscle” value (0.01 mg/kg) was 0.338, the “Ratio of 99mTc complex/85Sr: Pelvis” value (0.01 mg/kg) was 0.794 and the “Ratio of 99mTc complex/85Sr: Spine” value (0.01 mg/kg) was 0.689. The “Ratio of 99mTc complex/85Sr: Tibia” value (0.01 mg/kg) was 0.710, the “Tc/Sr (last line of distribution table)” value (0.01 mg/kg) was 0.736 and the “% Dose in Whole Organ: Blood” value (0.01 mg/kg AEDP) was 1.18 % Dose. The “% Dose in Whole Organ: Kidneys” value (0.01 mg/kg AEDP) was 1.59 % Dose, the “% Dose in Whole Organ: Liver” value (0.01 mg/kg AEDP) was 1.69 % Dose and the “% Dose in Whole Organ: Marrow” value (0.01 mg/kg AEDP) was 0.657 % Dose. For the same substance, the “% Dose in Whole Organ: Muscle” value (0.01 mg/kg AEDP) was 0.988 % Dose, the “% Dose in Whole Organ: W. Femur” value (0.01 mg/kg AEDP) was 2.34 % Dose and the “% Dose in Whole Organ: W. Tibia” value (0.01 mg/kg AEDP) was 1.96 % Dose. For the same substance, the “% Dose/1% Body weight: Blood” value (0.01 mg/kg AEDP) was 0.168 % Dose/1% Body weight, the “% Dose/1% Body weight: Bone Ave” value (0.01 mg/kg AEDP) was 7.60 % Dose/1% Body weight and the “% Dose/1% Body weight: Femur” value (0.01 mg/kg AEDP) was 7.54 % Dose/1% Body weight. For the same substance, the “% Dose/1% Body weight: Kidneys” value (0.01 mg/kg AEDP) was 2.72 % Dose/1% Body weight, the “% Dose/1% Body weight: Liver” value (0.01 mg/kg AEDP) was 0.617 % Dose/1% Body weight and the “% Dose/1% Body weight: Marrow” value (0.01 mg/kg AEDP) was 0.300 % Dose/1% Body weight. The “% Dose/1% Body weight: Muscle” value (0.01 mg/kg AEDP) was 0.037 % Dose/1% Body weight, the “% Dose/1% Body weight: Pelvis” value (0.01 mg/kg AEDP) was 8.53 % Dose/1% Body weight and the “% Dose/1% Body weight: Spine” value (0.01 mg/kg AEDP) was 6.20 % Dose/1% Body weight. For the same substance, the “% Dose/1% Body weight: Tibia” value (0.01 mg/kg AEDP) was 8.13 % Dose/1% Body weight, the “% Dose: Urine” value (0.01 mg/kg AEDP) was 48.39 % Dose and the “Ratio of 99mTc complex/85Sr: Ave Bone” value (0.05 mg/kg) was 0.683. For the same substance, the “Ratio of 99mTc complex/85Sr: Blood” value (0.05 mg/kg) was 0.409, the “Ratio of 99mTc complex/85Sr: Femur” value (0.05 mg/kg) was 0.687 and the “Ratio of 99mTc complex/85Sr: Kidneys” value (0.05 mg/kg) was 3.30. The “Ratio of 99mTc complex/85Sr: Liver” value (0.05 mg/kg) was 1.32, the “Ratio of 99mTc complex/85Sr: Marrow” value (0.05 mg/kg) was 1.18 and the “Ratio of 99mTc complex/85Sr: Muscle” value (0.05 mg/kg) was 0.236. For the same substance, the “Ratio of 99mTc complex/85Sr: Pelvis” value (0.05 mg/kg) was 0.684, the “Ratio of 99mTc complex/85Sr: Spine” value (0.05 mg/kg) was 0.675 and the “Ratio of 99mTc complex/85Sr: Tibia” value (0.05 mg/kg) was 0.681. For the same substance, the “Tc/Sr (last line of distribution table)” value (0.05 mg/kg) was 0.680, the “% Dose in Whole Organ: Blood” value (0.05 mg/kg AEDP) was 1.01 % Dose and the “% Dose in Whole Organ: Kidneys” value (0.05 mg/kg AEDP) was 1.13 % Dose. For the same substance, the “% Dose in Whole Organ: Liver” value (0.05 mg/kg AEDP) was 0.806 % Dose, the “% Dose in Whole Organ: Marrow” value (0.05 mg/kg AEDP) was 0.549 % Dose and the “% Dose in Whole Organ: Muscle” value (0.05 mg/kg AEDP) was 1.20 % Dose. For the same substance, the “% Dose in Whole Organ: W. Femur” value (0.05 mg/kg AEDP) was 2.41 % Dose, the “% Dose in Whole Organ: W. Tibia” value (0.05 mg/kg AEDP) was 2.14 % Dose and the “% Dose/1% Body weight: Blood” value (0.05 mg/kg AEDP) was 0.144 % Dose/1% Body weight. The “% Dose/1% Body weight: Bone Ave” value (0.05 mg/kg AEDP) was 8.39 % Dose/1% Body weight, the “% Dose/1% Body weight: Femur” value (0.05 mg/kg AEDP) was 8.63 % Dose/1% Body weight and the “% Dose/1% Body weight: Kidneys” value (0.05 mg/kg AEDP) was 1.83 % Dose/1% Body weight. The “% Dose/1% Body weight: Liver” value (0.05 mg/kg AEDP) was 0.176 % Dose/1% Body weight, the “% Dose/1% Body weight: Marrow” value (0.05 mg/kg AEDP) was 0.250 % Dose/1% Body weight and the “% Dose/1% Body weight: Muscle” value (0.05 mg/kg AEDP) was 0.028 % Dose/1% Body weight. For the same substance, the “% Dose/1% Body weight: Pelvis” value (0.05 mg/kg AEDP) was 7.82 % Dose/1% Body weight, the “% Dose/1% Body weight: Spine” value (0.05 mg/kg AEDP) was 7.80 % Dose/1% Body weight and the “% Dose/1% Body weight: Tibia” value (0.05 mg/kg AEDP) was 9.30 % Dose/1% Body weight. For the same substance, the “% Dose: Urine” value (0.05 mg/kg AEDP) was 44.21 % Dose, the “Ratio of 99mTc complex/85Sr: Ave Bone” value (0.1 mg/kg) was 0.716 and the “Ratio of 99mTc complex/85Sr: Blood” value (0.1 mg/kg) was 0.409. For the same substance, the “Ratio of 99mTc complex/85Sr: Femur” value (0.1 mg/kg) was 0.714, the “Ratio of 99mTc complex/85Sr: Kidneys” value (0.1 mg/kg) was 2.94 and the “Ratio of 99mTc complex/85Sr: Liver” value (0.1 mg/kg) was 0.490. The “Ratio of 99mTc complex/85Sr: Marrow” value (0.1 mg/kg) was 0.621, the “Ratio of 99mTc complex/85Sr: Muscle” value (0.1 mg/kg) was 0.205 and the “Ratio of 99mTc complex/85Sr: Pelvis” value (0.1 mg/kg) was 0.725. For the same substance, the “Ratio of 99mTc complex/85Sr: Spine” value (0.1 mg/kg) was 0.705, the “Ratio of 99mTc complex/85Sr: Tibia” value (0.1 mg/kg) was 0.721 and the “Tc/Sr (last line of distribution table)” value (0.1 mg/kg) was 0.717. The “% Dose in Whole Organ: Blood” value (0.1 mg/kg AEDP) was 0.96 % Dose, the “% Dose in Whole Organ: Kidneys” value (0.1 mg/kg AEDP) was 0.913 % Dose and the “% Dose in Whole Organ: Liver” value (0.1 mg/kg AEDP) was 0.309 % Dose. For the same substance, the “% Dose in Whole Organ: Marrow” value (0.1 mg/kg AEDP) was 0.211 % Dose, the “% Dose in Whole Organ: Muscle” value (0.1 mg/kg AEDP) was 1.46 % Dose and the “% Dose in Whole Organ: W. Femur” value (0.1 mg/kg AEDP) was 2.38 % Dose. The “% Dose in Whole Organ: W. Tibia” value (0.1 mg/kg AEDP) was 2.18 % Dose, the “% Dose/1% Body weight: Blood” value (0.1 mg/kg AEDP) was 0.137 % Dose/1% Body weight and the “% Dose/1% Body weight: Bone Ave” value (0.1 mg/kg AEDP) was 7.51 % Dose/1% Body weight. The “% Dose/1% Body weight: Femur” value (0.1 mg/kg AEDP) was 7.93 % Dose/1% Body weight, the “% Dose/1% Body weight: Kidneys” value (0.1 mg/kg AEDP) was 1.28 % Dose/1% Body weight and the “% Dose/1% Body weight: Liver” value (0.1 mg/kg AEDP) was 0.083 % Dose/1% Body weight. The “% Dose/1% Body weight: Marrow” value (0.1 mg/kg AEDP) was 0.096 % Dose/1% Body weight, the “% Dose/1% Body weight: Muscle” value (0.1 mg/kg AEDP) was 0.034 % Dose/1% Body weight and the “% Dose/1% Body weight: Pelvis” value (0.1 mg/kg AEDP) was 6.24 % Dose/1% Body weight. For the same substance, the “% Dose/1% Body weight: Spine” value (0.1 mg/kg AEDP) was 7.36 % Dose/1% Body weight, the “% Dose/1% Body weight: Tibia” value (0.1 mg/kg AEDP) was 8.50 % Dose/1% Body weight and the “% Dose: Urine” value (0.1 mg/kg AEDP) was 38.8 % Dose. For the same substance, the “Ratio of 99mTc complex/85Sr: Ave Bone” value (0.5 mg/kg) was 0.644, the “Ratio of 99mTc complex/85Sr: Blood” value (0.5 mg/kg) was 0.280 and the “Ratio of 99mTc complex/85Sr: Femur” value (0.5 mg/kg) was 0.628. For the same substance, the “Ratio of 99mTc complex/85Sr: Kidneys” value (0.5 mg/kg) was 2.47, the “Ratio of 99mTc complex/85Sr: Liver” value (0.5 mg/kg) was 0.459 and the “Ratio of 99mTc complex/85Sr: Marrow” value (0.5 mg/kg) was 0.500. For the same substance, the “Ratio of 99mTc complex/85Sr: Muscle” value (0.5 mg/kg) was 0.140, the “Ratio of 99mTc complex/85Sr: Pelvis” value (0.5 mg/kg) was 0.692 and the “Ratio of 99mTc complex/85Sr: Spine” value (0.5 mg/kg) was 0.614. For the same substance, the “Ratio of 99mTc complex/85Sr: Tibia” value (0.5 mg/kg) was 0.632, the “Tc/Sr (last line of distribution table)” value (0.5 mg/kg) was 0.645 and the “% Dose in Whole Organ: Blood” value (0.5 mg/kg AEDP) was 1.38 % Dose. For the same substance, the “% Dose in Whole Organ: Kidneys” value (0.5 mg/kg AEDP) was 1.11 % Dose, the “% Dose in Whole Organ: Liver” value (0.5 mg/kg AEDP) was 0.216 % Dose and the “% Dose in Whole Organ: Marrow” value (0.5 mg/kg AEDP) was 0.23 % Dose. The “% Dose in Whole Organ: Muscle” value (0.5 mg/kg AEDP) was 0.883 % Dose, the “% Dose in Whole Organ: W. Femur” value (0.5 mg/kg AEDP) was 1.74 % Dose and the “% Dose in Whole Organ: W. Tibia” value (0.5 mg/kg AEDP) was 1.55 % Dose. For the same substance, the “% Dose/1% Body weight: Blood” value (0.5 mg/kg AEDP) was 0.197 % Dose/1% Body weight, the “% Dose/1% Body weight: Bone Ave” value (0.5 mg/kg AEDP) was 6.96 % Dose/1% Body weight and the “% Dose/1% Body weight: Femur” value (0.5 mg/kg AEDP) was 6.59 % Dose/1% Body weight. For the same substance, the “% Dose/1% Body weight: Kidneys” value (0.5 mg/kg AEDP) was 2.11 % Dose/1% Body weight, the “% Dose/1% Body weight: Liver” value (0.5 mg/kg AEDP) was 0.079 % Dose/1% Body weight and the “% Dose/1% Body weight: Marrow” value (0.5 mg/kg AEDP) was 0.104 % Dose/1% Body weight. The “% Dose/1% Body weight: Muscle” value (0.5 mg/kg AEDP) was 0.021 % Dose/1% Body weight, the “% Dose/1% Body weight: Pelvis” value (0.5 mg/kg AEDP) was 7.93 % Dose/1% Body weight and the “% Dose/1% Body weight: Spine” value (0.5 mg/kg AEDP) was 6.05 % Dose/1% Body weight. For the same substance, the “% Dose/1% Body weight: Tibia” value (0.5 mg/kg AEDP) was 7.27 % Dose/1% Body weight and the “% Dose: Urine” value (0.5 mg/kg AEDP) was 48.85 % Dose.
